Measurements as given in ChEMBL document CHEMBL6096738, “Optimization of Single Relaxin B-Chain Peptide Leads to the Identification of R2R01, a Potent, Long-Acting RXFP1 Agonist for Cardiovascular and Renal Diseases” (J Med Chem, 2025).
pEC50: −log10 of the molar value. Starred links: 1 amine or outer side, 2 acyl side, 3 side chain; linkers in the order of their positions; H or OH if unused. Non-standard residues stand in square brackets, D forms with d. Residues, ends and D or L forms follow the SMILES beside them. Groups on a side chain read outwards from the residue. *: point of attachment. X3 = CCCCCCCCCCCCCCCCCC(=O)N[C@@H](CCC(=O)N[C@@H](CCC(=O)N[C@@H](CCC(=O)NCCCOCCOCCOCCCNC(=O)CCC(=O)NCCCOCCOCCOCCCNC(=O)CCC(=O)NCCCOCCOCCOCCCN*)C(=O)O)C(=O)O)C(=O)O; PEG12 = NCCOCCOCCOCCOCCOCCOCCOCCOCCOCCOCCOCCOCCC(=O)O; γGlu = O=C(O)[C@H](CCC(=O)[*:2])N[*:1]; Stearoyl = CCCCCCCCCCCCCCCCCC(=O)*; Suc = O=C(CCC(=O)[*:2])[*:1]; Nle = CCCC[C@H](N)C(=O)O; Aib = CC(C)(N)C(=O)O

What was measured:
Relaxin receptor 1 [1] = molecular target: T1, Relaxin receptor 1 (Homo sapiens, UniProt Q9HBX9); experiment: Agonist activity at human RXFP1 expressed in human OVCAR-5 cells assessed as intracellular cAMP accumulation incubated for 30 mins by HTRF assay; format: functional, cell-based
T1 sequence (Q9HBX9 whole entry): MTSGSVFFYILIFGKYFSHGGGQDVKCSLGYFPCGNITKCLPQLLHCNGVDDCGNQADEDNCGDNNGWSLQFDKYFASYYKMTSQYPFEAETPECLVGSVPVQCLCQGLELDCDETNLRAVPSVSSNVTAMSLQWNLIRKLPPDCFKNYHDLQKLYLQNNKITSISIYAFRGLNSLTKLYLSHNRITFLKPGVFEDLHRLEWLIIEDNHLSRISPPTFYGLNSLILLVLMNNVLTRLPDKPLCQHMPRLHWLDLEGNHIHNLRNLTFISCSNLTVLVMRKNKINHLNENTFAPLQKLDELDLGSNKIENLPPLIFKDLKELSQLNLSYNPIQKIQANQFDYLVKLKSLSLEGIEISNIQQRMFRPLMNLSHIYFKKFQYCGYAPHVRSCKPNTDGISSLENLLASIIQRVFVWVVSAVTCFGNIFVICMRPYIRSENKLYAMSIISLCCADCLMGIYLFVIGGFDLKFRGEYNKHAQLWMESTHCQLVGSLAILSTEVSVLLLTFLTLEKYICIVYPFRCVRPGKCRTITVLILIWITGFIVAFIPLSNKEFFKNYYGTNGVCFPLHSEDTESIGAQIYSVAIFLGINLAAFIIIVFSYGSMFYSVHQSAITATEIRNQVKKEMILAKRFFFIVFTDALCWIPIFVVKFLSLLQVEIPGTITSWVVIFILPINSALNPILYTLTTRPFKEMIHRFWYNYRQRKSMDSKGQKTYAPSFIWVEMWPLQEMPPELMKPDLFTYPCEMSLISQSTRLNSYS

[2] = molecular target: T2, Relaxin receptor 1 (Homo sapiens) (UniProt Q9HBX9); experiment: Agonist activity at human RXFP1 expressed in human OVCAR-5 cells assessed as intracellular cAMP accumulation by measuring maximal efficacy incubated for 30 mins by HTRF assay relative to control; format: functional, cell-based; conditions: filed as agonist
T2 sequence (whole entry): T1 sequence (Q9HBX9 whole entry)

Relaxin receptor 1 [3] = molecular target: T1, Relaxin receptor 1; experiment: Agonist activity at human RXFP1 expressed in 2%HSA treated human OVCAR-5 cells assessed as intracellular cAMP accumulation incubated for 30 mins with 2% HSA pretreated compound by HTRF assay; format: functional, cell-based
[4] = molecular target: T2, Relaxin receptor 1 (Homo sapiens); experiment: Agonist activity at human RXFP1 expressed in 2%HSA treated human OVCAR-5 cells assessed as intracellular cAMP accumulation by measuring maximal efficacy incubated for 30 mins with 2% HSA pretreated compound by HTRF assay relative to control; format: functional, cell-based; conditions: filed as agonist
[5] = Half-life in male Sprague-Dawley rat at 1 mg/kg, iv measured after 198 hrs by LC-HRMS analysis; format: ADME, organism-based; conditions: in vivo
[6] = Induction of immune response in human CD4+ T cells assessed as increase in auto reactive T cells at 3 uM preincubated with monocyte-derived immature dendritic cells followed by T cell addition and further stimulated on day 7 and 14 with autologous dendritic cells and measured after 5 days post last stimulation by IFNgamma-Elispot analysis; format: toxicity, cell-based; conditions: 120 h
[7] = Induction of mast cell degranulation in human LAD2 cells assessed as beta-hexosaminidase release by measuring 4-methylumbelliferyl N-acetyl-beta-D-glucosaminide hydrolysis incubated for 30 mins by plate reader analysis; format: toxicity, cell-based; conditions: probe 4-methylumbelliferyl N-acetyl-beta-D-glucosaminide
[8] = Induction of mast cell degranulation in human LAD2 cells assessed as beta-hexosaminidase release by measuring maximal efficacy of 4-methylumbelliferyl N-acetyl-beta-D-glucosaminide hydrolysis at 10 uM incubated for 30 mins by plate reader analysis relative to control; format: toxicity, cell-based; conditions: probe 4-methylumbelliferyl N-acetyl-beta-D-glucosaminide

pEC50 (Relaxin receptor 1 [1])	Emax [2] [%]	pEC50 (Relaxin receptor 1 [3])	Emax [4] [%]	half-life [5] [h]	Structure (SMILES)	Activity [6]	EC50 at 30 min [7] [nM]	Emax at 0.5 h, 10 µM [8] [%]
9.22	95	8.05	84	4.3	CCCCCCCCCCCCCCCCCC(=O)N[C@@H](CCC(=O)N[C@@H](CCC(=O)N[C@@H](CCC(=O)NCCCC[C@H](NC(=O)CCOCCOCCOCCOCCOCCOCCOCCOCCOCCOCCOCCOCCNC(=O)[C@H](CCCCNC(C)=O)NC(=O)[C@H](CCCCN)NC(=O)[C@H](CCCNC(=N)N)NC(=O)C(C)(C)NC(=O)[C@H](CO)NC(=O)[C@H](Cc1c[nH]c2ccccc12)NC(=O)[C@@H](NC(=O)[C@H](CO)NC(=O)[C@H](CCCC)NC(=O)CNC(=O)[C@H](CCC(=O)O)NC(=O)C(C)(C)NC(=O)C(C)(C)NC(=O)[C@@H](NC(=O)[C@H](CCCCNC(C)=O)NC(=O)[C@H](C)NC(=O)[C@H](CCCNC(=N)N)NC(=O)[C@@H](NC(=O)[C@H](CCCCN)NC(=O)[C@H](CCC(=O)O)NC(=O)[C@H](CCCNC(=N)N)NC(=O)CNC(=O)[C@H](CCC(=O)O)NC(=O)[C@H](CC(C)C)NC(C)=O)C(C)C)[C@@H](C)CC)[C@@H](C)O)C(N)=O)C(=O)O)C(=O)O)C(=O)O (Ac-LEGREKVRAK(Ac)I[Aib][Aib]EG[Nle]STWS[Aib]RKK(Ac)[PEG12]K([γGlu-γGlu-γGlu-Stearoyl])-NH2)	Non-toxic		
9.70	96	7.97	97	5.13	CCCCCCCCCCCCCCCCCC(=O)N[C@@H](CCC(=O)N[C@@H](CCC(=O)N[C@@H](CCC(=O)NCCCOCCOCCOCCCNC(=O)CCC(=O)NCCCOCCOCCOCCCNC(=O)CCC(=O)NCCCOCCOCCOCCCNC(=O)CCC(=O)NCCCC[C@H](NC(=O)CNC(=O)[C@H](CCC(=O)O)NC(=O)C(C)(C)NC(=O)C(C)(C)NC(=O)[C@@H](NC(=O)[C@H](CCCCNC(C)=O)NC(=O)[C@H](C)NC(=O)[C@H](CCCNC(=N)N)NC(=O)[C@@H](NC(=O)[C@H](CCCCN)NC(=O)[C@H](CCC(=O)O)NC(=O)[C@H](CCCNC(=N)N)NC(=O)CNC(=O)[C@H](CCC(=O)O)NC(=O)[C@H](CC(C)C)NC(C)=O)C(C)C)[C@@H](C)CC)C(=O)N[C@@H](CO)C(=O)N[C@H](C(=O)N[C@@H](Cc1c[nH]c2ccccc12)C(=O)N[C@@H](CO)C(=O)NC(C)(C)C(=O)N[C@@H](CCCNC(=N)N)C(=O)N[C@@H](CCCCN)C(=O)N[C@@H](CCCCNC(C)=O)C(N)=O)[C@@H](C)O)C(=O)O)C(=O)O)C(=O)O (Ac-LEGREKVRAK(Ac)I[Aib][Aib]EGK([Suc-X3])STWS[Aib]RKK(Ac)-NH2)		6430	70
					CCCC[C@H](NC(=O)CNC(=O)[C@H](CCC(=O)O)NC(=O)C(C)(C)NC(=O)C(C)(C)NC(=O)[C@@H](NC(=O)[C@H](CCCCNC(C)=O)NC(=O)[C@H](C)NC(=O)[C@H](CCCNC(=N)N)NC(=O)[C@@H](NC(=O)[C@H](CCCCN)NC(=O)[C@H](CCC(=O)O)NC(=O)[C@H](CCCNC(=N)N)NC(=O)CNC(=O)[C@H](CCC(=O)O)NC(=O)[C@H](CC(C)C)NC(C)=O)C(C)C)[C@@H](C)CC)C(=O)N[C@@H](CO)C(=O)N[C@H](C(=O)N[C@@H](Cc1c[nH]c2ccccc12)C(=O)N[C@@H](CO)C(=O)NC(C)(C)C(=O)N[C@@H](CCCNC(=N)N)C(=O)N[C@@H](CCCCN)C(=O)N[C@@H](CCCCNC(C)=O)C(N)=O)[C@@H](C)O (Ac-LEGREKVRAK(Ac)I[Aib][Aib]EG[Nle]STWS[Aib]RKK(Ac)-NH2)	Non-toxic		
